Reference: publication PMC7615751, “Anionic liposome formulation for oral delivery of thuricin CD, a potential antimicrobial peptide therapeutic” (International journal of pharmaceutics, 2024)

Key:
[1] = FaSSIF vs PBS; ref Ryan et al., 2021; cited from earlier work
Source text: The pH in FaSSIF is 6.5, and the pI of Trn α and Trn β is close to 4, so the thuricin CD peptides should both be slightly negatively charged in this solution (ExPASy, 2022), helping their dissolution in this medium. Also, it has been previously reported that lacticin 3147, a two peptide bacteriocin with similar ...

[2] = tested on: Caco-2 cells; assay: Presto blue cytotoxicity assay; format: cell-based; settings: 5 μg/mL Trn α + 5 μg/mL Trn β, 24 h, 37 °C, absorbance 570 nm
Protocol: The biocompatibility of Trn αβ liposome suspension and dissolved thuricin CD with intestinal epithelial cells were tested. Caco-2 cells were grown in high glucose Dulbecco’s modified Eagle’s medium supplemented with 10 % fetal bovine serum, 1 % L-Glutamine, 1 % pen-strep, and 1 % non-essential amino acids at 37 °C, with 5 % CO2 and 95 % relative humidity. Approximately 10,000 cells were seeded per well in a 96-well plate. The plate was incubated overnight to ensure the cells adhered to the wells. The media was removed from the wells and filter-sterilized dissolved thuricin CD and Trn αβ liposome suspension samples at a final concentration of 5 μg/mL of each peptide were added 1:1 (v/v) with fresh media. Control wells were included by adding blank liposomes and just media to the cells. The plate was incubated for 24 h at 37 °C, with 5 % CO2 and 95 % relative humidity. The media was removed from the wells, 10 μL Presto blue +90 μL fresh media was added to each well and left incubating for 60 min. Finally, the absorbances of the solutions in the plate were read at 570 nm and plotted for all samples.

[3] = target: T1, pepsin (Sus scrofa, UniProt P00791); assay: Enzymatic degradation of dissolved thuricin CD by pepsin (residual antibacterial activity); format: in vitro ADME; settings: 5.6 μg/mL Trn α + 5.8 μg/mL Trn β
T1 construct: purchased Sigma Aldrich Ireland Ltd
T1 sequence (P00791 60-385): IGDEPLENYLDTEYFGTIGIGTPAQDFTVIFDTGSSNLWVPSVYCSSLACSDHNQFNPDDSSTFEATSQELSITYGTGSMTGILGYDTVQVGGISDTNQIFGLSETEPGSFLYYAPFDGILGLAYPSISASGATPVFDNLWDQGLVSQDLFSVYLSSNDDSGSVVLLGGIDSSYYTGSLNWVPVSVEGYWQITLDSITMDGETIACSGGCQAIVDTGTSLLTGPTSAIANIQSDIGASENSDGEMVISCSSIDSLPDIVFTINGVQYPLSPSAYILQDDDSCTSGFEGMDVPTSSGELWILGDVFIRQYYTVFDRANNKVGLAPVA
Protocol: Trn α and Trn β stock solutions (1 mg/mL in 70 % IPA 0.1 % TFA in water) were filter sterilized and diluted to a final concentration of 100 μg/mL in sterile PBS. Pepsin activity was evaluated beforehand according to the haemoglobin assay, based on the principle that haemoglobin in water produces tyrosine peptides soluble in trichloroacetic acid (TCA) when pepsin is applied ([Brodkorb, 2019]). The activity units (AU or μmol/min), defined as the quantity of the enzyme that converts one micromole of substrate per minute, were determined before this test. Pepsin was suspended in cold 0.01 M HCl pH 2 reaching 824 activity units per mL. Trn α and Trn β were added to the same well of a 96-well plate in triplicate to give a final concentration of 5.6 μg/mL and 5.8 μg/mL respectively. […] 25 μL of pepsin solution was also added to each of the wells. This gave a final pepsin concentration/activity of 1.2 mg/mL or 98.8 AU/mL, which is the approximate concentration of enzyme present in the human stomach ([Liu, 2015]). Thuricin alone and pepsin alone were included as control samples with the bacterial culture. Blanks were set up in triplicate with PBS, 0.01 M HCl, and media only (BHI). […] The plate was incubated in a BioTek ELx808 Ultra microplate reader at 37 °C for 24 h at a wavelength of 590 nm. Readings were taken every 30 min for 24 h with the plate shaken mildly before each reading.

[4] = tested on: L. monocytogenes ATCC 1916; assay: Solution behaviour / activity of free thuricin CD in FaSSIF without enzymes; format: cell-based; settings: free thuricin suspended from solid in FaSSIF pH 6.5, 37 °C, 0.2 μm filtered, growth curve 24 h, triplicate
Protocol: (§1) Fasted state simulated intestinal fluid (FaSSIF) and fasted state simulated gastric fluid (FaSSGF) were prepared using Biorelevant FaS-SIF/FaSSGF powder following the manufacturer’s instructions. Briefly, for FaSSIF, 0.21 g NaOH, 1.72 g sodium phosphate monobasic and 3.10 g NaCl were diluted in 400 mL distilled water. The solution was stirred until dissolved. The pH was then adjusted to 6.5 with 0.1 M HCl. 1.12 g FaSSIF powder was added and finally, the volume was topped up to 500 mL. For FaSSGF, 2 g NaCl was dissolved in 900 mL distilled water. The pH was adjusted to 1.6 with 1 M HCl.
Trn α and Trn β solutions at concentrations of 0.5 mg/mL in FaSSGF/FaSSIF were suspended directly from lyophilised powder (free thuricin). Further dilutions were carried out to reach concentrations of 2 times, 5 times and 10 times the MIC50 in the final volume to be used for the experiment. The suspensions were distributed in different microtubes and incubated at 37 °C, 300 rpm in an incubator for 0.5 h. An aliquot of each concentration was taken, and filter sterilized with a 0.2 μm PES filter. 50 μL of each sterile solution was transferred to a 96-well microtiter plate in triplicate. Each well was filled with 150 μL of a L. monocytogenes culture at an OD of 0.1. A control was set with 50 μL of FaSSGF/FaSSIF and 150 μL culture. The plate was incubated in a Biotek ELx808 Ultra microplate reader at 37 °C for 24 h at a wavelength of 590 nm. Readings were taken every 30 min for 24 h with the plate shaken mildly before each one. The readings collected from those samples were considered as time 0. In the meantime, the microtubes were put back in the incubator with reduced shaking. After 1, 4 and 24 h a new aliquot was taken, and the same protocol was followed for activity testing.

[5] = target: T2, trypsin (Sus scrofa, UniProt P00761); assay: Enzymatic degradation of dissolved thuricin CD by trypsin (residual antibacterial activity); format: in vitro ADME; settings: 4.4 μg/mL Trn α + 4.4 μg/mL Trn β; 19.3 μg/ml trypsin; 3 h, 37 °C; then growth curve 24 h, OD 590 nm; triplicate
T2 construct: purchased Sigma Aldrich Ireland Ltd
T2 sequence (P00761 9-231): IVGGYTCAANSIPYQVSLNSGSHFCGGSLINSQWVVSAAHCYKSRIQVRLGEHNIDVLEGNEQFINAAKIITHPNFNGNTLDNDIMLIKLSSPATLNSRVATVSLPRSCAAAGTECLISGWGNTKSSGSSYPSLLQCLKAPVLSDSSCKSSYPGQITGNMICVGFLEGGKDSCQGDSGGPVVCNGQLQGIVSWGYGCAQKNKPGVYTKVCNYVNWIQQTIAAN
Protocol: (§2) Trn α and Trn β stock solutions (1 mg/mL in 70 % IPA 0.1 % TFA in water) were filter sterilized and diluted to a final concentration of 100 μg/mL in sterile PBS. Pepsin activity was evaluated beforehand according to the haemoglobin assay, based on the principle that haemoglobin in water produces tyrosine peptides soluble in trichloroacetic acid (TCA) when pepsin is applied ([Brodkorb, 2019]). The activity units (AU or μmol/min), defined as the quantity of the enzyme that converts one micromole of substrate per minute, were determined before this test. Pepsin was suspended in cold 0.01 M HCl pH 2 reaching 824 activity units per mL. Trn α and Trn β were added to the same well of a 96-well plate in triplicate to give a final concentration of 5.6 μg/mL and 5.8 μg/mL respectively. […] The plate was incubated in a BioTek ELx808 Ultra microplate reader at 37 °C for 24 h at a wavelength of 590 nm. Readings were taken every 30 min for 24 h with the plate shaken mildly before each reading.
(§3) A similar procedure was followed for trypsin and chymotrypsin, but different concentrations were used, and incubation time was 3 h. […] Trypsin activity units were determined by a previously established assay based on the principle that p-toluene-sulfonyl-l-arginine methyl ester (TAME) in water produces p-toluene-sulfonyl-L-arginine plus methanol when trypsin is applied ([Brodkorb, 2019]). […]

[6] = tested on: L. monocytogenes ATCC 1916; assay: Bioactivity of dissolved thuricin CD (MIC50, growth curves at OD 590 nm); format: cell-based; settings: 24 h, 37 °C
Protocol: For this study, L. monocytogenes was used as an indicator strain. The minimum inhibitory concentration MIC50 was determined based on the protocol previously described by Mathur et al. ([Mathur, et al., 2017]). MIC50 was established as the concentration of peptides that inhibited 50 % of growth of L. monocytogenes ATCC 1916 ([Rea, 2010]).
Briefly, 1 mg/mL stock solutions of freeze-dried Trnα and Trnβ resuspended in 70 % IPA 0.1 % TFA in water were diluted in sterile PBS to a final concentration of 100 μg/mL (dissolved thuricin). For all the experiments in this, and the following sections, a 1:1 M ratio of Trn α: Trn β was used. The corresponding volumes of each peptide to reach 250 nM of each peptide (0.69 μg/mL Trn α + 0.72 μg/mL Trn β), 500 nM of each peptide (1.38 μg/mL Trn α + 1.43 μg/mL Trn β), 1 μM of each peptide (2.76 μg/mL Trn α + 2.86 μg/mL Trn β), and 2 μM of each peptide (5.53 μg/mL Trn α + 5.72 μg/mL Trn β) in the final well volume were added in triplicate to a 96 well plate. […] L. monocytogenes ATCC 1916 was grown in BHI broth shaking overnight at 37 °C. 150 μL of 10^5 CFU/mL bacterial culture was added to the wells with sample. Blanks were set up in triplicate with only PBS and media as well as a control containing buffer and bacterial culture. The plate was incubated in a Biotek ELx808 Ultra microplate reader at 37 °C for 24 h. Readings were taken every 30 min at 590 nm. […]

[7] = target: T1, pepsin; assay: Biological activity after incubation in FaSSGF with pepsin; format: in vitro ADME; settings: dissolved Trn α and β, 1.2 mg/mL pepsin in FaSSGF, 30 min, 37 °C; double the MIC50; L. monocytogenes growth curve 24 h
Protocol: The activity of αβ liposome suspension and dissolved αβ peptides after exposing both to FaSSGF with pepsin and FaSSIF without pancreatin was analysed. No pancreatin was added to FaSSIF because it inhibitied L. monocytogenes growth itself. Trn αβ loaded liposome suspension or dissolved thuricin (thuricin powder in 70 % IPA 0.1 % TFA in water and further diluted in acetate buffer) + pepsin in FaSSGF were prepared as described in the previous section. Control samples with acetate buffer + pepsin in FaSSGF were also prepared.
After 30 min incubation, pepsin was deactivated by heating the samples at 70 °C for 10 min. The volume necessary to reach a concentration of double the MIC50 of thuricin peptides was added to a 96-well plate. The wells were topped to 50 μL with PBS. 150 μL of 10^5 CFU/mL bacterial cell culture (L. monocytogenes) was added to each well. Blanks were set with media and control samples. The plate was incubated in a BioTek ELx808 Ultra microplate reader at 37 °C for 24 h at a wavelength of 590 nm. Readings were taken every 30 min for 24 h with the plate shaken mildly before each reading.

[8] = tested on: L. monocytogenes ATCC 1916; assay: Solution behaviour / activity of free thuricin CD in FaSSGF without enzymes; format: cell-based
Protocol: as §1
Trn α and Trn β solutions at concentrations of 0.5 mg/mL in FaSSGF/FaSSIF were suspended directly from lyophilised powder (free thuricin). Further dilutions were carried out to reach concentrations of 2 times, 5 times and 10 times the MIC50 in the final volume to be used for the experiment. The suspensions were distributed in different microtubes and incubated at 37 °C, 300 rpm in an incubator for 0.5 h. An aliquot of each concentration was taken, and filter sterilized with a 0.2 μm PES filter. […] The plate was incubated in a Biotek ELx808 Ultra microplate reader at 37 °C for 24 h at a wavelength of 590 nm. Readings were taken every 30 min for 24 h with the plate shaken mildly before each one. The readings collected from those samples were considered as time 0. […]

[9] = cell-free supernatants; ref Rea, 2010; cited from earlier work
Source text: However, because of their peptide nature, bacteriocins are susceptible to degradation, aggregation, and precipitation in the body, and can show low solubility and poor permeability ([Flynn et al., 2021]). Previous reports have evaluated the heat and pH stability of thuricin CD cell-free supernatants. […] Activity was also maintained in a pH range of 2 to 9 ([Rea, 2010]). Neither quantitative nor qualitative data on the solubility of thuricin in biorel ...

[10] = tested on: L. monocytogenes ATCC 1916; assay: Biological activity of Trn αβ loaded liposomes vs free thuricin CD in acetate buffer; format: cell-based; settings: 1.25 and 2.50 μg/mL of each peptide, 37 °C, 24 h, OD 590 nm, triplicate
Protocol: The activity of Trn αβ liposomes was evaluated following the methodology previously described for thuricin CD. Briefly, the liposome suspension was filtered with a 0.45 μm PES sterile filter. Different volumes of the sterile liposome suspension were added to reach final concentrations of Trn α and Trn β of 1.25 and 2.50 μg/mL in each well. Samples were tested in triplicate. […] 150 μL of 10^5 CFU/mL L. monocytogenes ATCC 1916 culture was added to the wells with sample. Blanks were set up in triplicate with only media, the corresponding blank liposome suspension volume, and PBS. Controls contained inoculated media and PBS. The plate was incubated in a BioTek ELx808 Ultra microplate reader at 37 °C for 24 h. Readings were taken every 30 min at 590 nm. The same procedure was followed for free thuricin (freeze dried thuricin powder directly suspended in acetate buffer).

[11] = target: T3, α-chymotrypsin (Bos taurus, UniProt P00766); assay: Enzymatic degradation of dissolved thuricin CD by α-chymotrypsin (residual antibacterial activity); format: in vitro ADME; settings: 4.4 μg/mL Trn α + 4.4 μg/mL Trn β; 19.3 μg/ml α-chymotrypsin; 3 h, 37 °C; then growth curve 24 h, OD 590 nm; triplicate
T3 construct: purchased Sigma Aldrich Ireland Ltd
Protocol: as §2, §3

Substance | solubility in FaSSIF [1] | cytotoxicity: absorbance compared to the control group of living cells [2] | activity against L. monocytogenes ATCC 1916 after exposure to pepsin ([3]; pepsin 1.2 mg/mL (98.8 AU/mL), 0.01 M HCl pH 2/PBS, 1.5 h, 37 °C, 70 rpm, then growth curve 24 h, OD 590 nm, triplicate) | time for which bacterial growth was inhibited, thuricin alone (no enzyme) ([3]; positive control without pepsin, incubated 1.5 h at 37 °C before culture, growth curve 24 h) | activity after addition of lyophilised powder to FaSSIF, five times the MIC50 ([4]; all time points 0–24 h) | activity after addition of lyophilised powder to FaSSIF, ten times the MIC50 ([4]; all time points 0–24 h) | activity after addition of lyophilised powder to FaSSIF, double the MIC50 ([4]; time points 0, 1, 4, 24 h) | activity against L. monocytogenes ATCC 1916 after exposure to trypsin [5] | effect on bacterial growth ([6]; 0.25 μM of each peptide) | inhibition of bacterial growth ([6]; 0.5 μM of each peptide, 1:1 M ratio) | activity after exposure to pepsin in FaSSGF [7] | activity of peptides pre-dissolved in 70 % IPA 0.1 % TFA in water and diluted in FaSSGF ([8]; 2, 5 and 10 times the MIC50, 1:1 molar ratio, FaSSGF pH 1.6 (Figure S3)) | activity after addition of lyophilised powder to FaSSGF ([8]; free thuricin suspended from solid in FaSSGF pH 1.6, 37 °C, x2, x5, x10 MIC50, 0, 1, 4, 24 h, 0.2 μm filtered, growth curve 24 h, triplicate) | heat stability at 85 °C [9] | heat stability at 90 °C [9] | heat stability at 100 °C [9] | activity of lyophilised peptides directly suspended in acetate buffer [10] | activity against L. monocytogenes ATCC 1916 after exposure to α-chymotrypsin [11]
lacticin 3147 | improved solubility in FaSSIF compared to PBS | – | – | – | – | – | – | – | – | – | – | – | – | – | – | – | – | –
thuricin CD | – | none of the samples exhibited any significant difference in absorbance | deactivated | ~17 h | activity is observed | activity is observed | no activity is observed | retained its activity | could not significantly inhibit bacterial growth | approximately 50% | completely lost activity | retained thuricin CD activity | no activity was detected | stable | reducing its activity | complete activity loss | do not demonstrate any activity | growth comparable to the control
